From US10703748B2, “Diazanaphthalen-3-yl carboxamides and preparation and use thereof” (Samumed, LLC, priority 2017, dated 2020) come the findings set out here.

A word on the EC50: it is the concentration needed to bring the measured effect to its halfway point.

One test relates to IL-6. The test can be described thus: IL-6 inhibition in LPS-stimulated human peripheral blood mononuclear cells (HTRF). To be noted: Homo sapiens, PBMC; for EC50: 22 h; for inhibition at 10 µM: read-out: percentage in parentheses after EC50 >10. On the technique in general: In TR-FRET formats the signal depends on donor and acceptor labels being close together.
For test [1], the system named is Wnt-responsive Sp5-Luc reporter in SW480 colon carcinoma cells. Briefly: Screening assay for Wnt activity (Sp5-Luc reporter gene assay). The settings on record: for inhibition at 10 µM: SW480, read-out: percent inhibition at 10 μM. For orientation: A reporter such as luciferase makes a cellular process visible.
Description: The screening assay for Wnt activity is described as follows.
SW480 colon carcinoma cells were transduced with a lentiviral vector expressing luciferase with a human Sp5 promoter consisting of a sequence of eight TCF/LEF binding sites. […] These stably transduced SW480 cells were expanded in cell culture and used for all further screening activities. Each compound was dissolved in DMSO as a 10 mM stock and used to prepare compound source plates. Serial dilution (1:3, 10-point dose-response curves starting from 10 μM) and compound transfer was performed using the ECHO 550 (Labcyte, Sunnyvale, Calif.) into 384-well white solid bottom assay plates (Greiner Bio-One) with appropriate DMSO backfill for a final DMSO concentration of 0.1%. […] Following incubation, 15 μl of BriteLite Plus luminescence reagent (Perkin Elmer) was added to each well of the 384-well assay plates. The plates were placed on an orbital shaker for 2 min and then luminescence was quantified using the Envision (Perkin Elmer) plate reader.
The subject of test [2] is secreted cytokines TNFα, IL-6 and KC-GRO. Briefly: Secreted cytokines in Lipopolysaccharide-stimulated BV-2 cells (Table 9 does not say which cytokine). The class given is cell-based, mouse. The settings on record: read-out: EC50.
The subject of test [3] is SW480 colon carcinoma cells. The test can be described thus: Cell viability assay (CellTiter-Glo). The settings on record: for inhibition at 10 µM: SW480, read-out: percent inhibition at 10 μM. A general note: Cellular ATP, detected with luciferase, serves as a proxy for viable cell number.
The target in a further test is DYRK1A kinase (Homo sapiens, UniProt Q13627). Briefly: DYRK1A kinase activity (Ser/Thr 18 peptide Z-lyte FRET assay).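 Note: kinase activity read as coumarin/fluorescein emission ratio after development step, with unphosphorylated and phosphorylated peptide forms setting 0% and 100% controls, values from dose-response curves.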 The class given is biochemical. To be noted: recombinant DYRK1A, 30 μM ATP, one hour at room temperature.
Test [4] has as its system α-smooth muscle actin (aSMA) positive LL29 cells. The test can be described thus: Inhibition of the fibrotic process: αSMA staining in TGF-β1 treated LL29 fibroblasts from IPF patients. The settings on record: for inhibition at 10 µM: read-out: percentage in parentheses after EC50 >10.
Description: Each compound was dissolved in DMSO as a 10 mM stock and used to prepare compound source plates. […] LL29 cells were plated at 1,500 cells/well in 70 μL/well F12 medium supplemented with 1% Fetal Bovine Serum. […] Wells treated with TGF-β1 and containing DMSO were used as positive control, and cells with only DMSO were negative control. Cells were incubated at 37° C. and 5% CO2 for 4 days. Following incubation for 4 days, SYTOX green nucleic acid stain (Life Technologies [Thermo Fisher Scientific]) was added to the wells at a final concentration of 1 μM and incubated at room temperature for 30 min. Cells were then fixed using 4% formaldehyde (Electron Microscopy Sciences), washed 3 times with PBS followed by blocking and permeabilization using 3% Bovine Serum Albumin (BSA; Sigma) and 0.3% Triton X-100 (Sigma) in PBS.
For a further test, the target named is GSK3β kinase (Homo sapiens, UniProt P49841). Briefly: GSK3β kinase activity (Ser/Thr 09 peptide Z-lyte FRET assay). It counts as biochemical. To be noted: recombinant kinase, 46 μM ATP, one hour at room temperature; read-out: EC50.

Like-named read-outs stand apart in the source and are kept apart here. Bounds are passed on as bounds.

Chain of GSK3β kinase (P49841 whole entry): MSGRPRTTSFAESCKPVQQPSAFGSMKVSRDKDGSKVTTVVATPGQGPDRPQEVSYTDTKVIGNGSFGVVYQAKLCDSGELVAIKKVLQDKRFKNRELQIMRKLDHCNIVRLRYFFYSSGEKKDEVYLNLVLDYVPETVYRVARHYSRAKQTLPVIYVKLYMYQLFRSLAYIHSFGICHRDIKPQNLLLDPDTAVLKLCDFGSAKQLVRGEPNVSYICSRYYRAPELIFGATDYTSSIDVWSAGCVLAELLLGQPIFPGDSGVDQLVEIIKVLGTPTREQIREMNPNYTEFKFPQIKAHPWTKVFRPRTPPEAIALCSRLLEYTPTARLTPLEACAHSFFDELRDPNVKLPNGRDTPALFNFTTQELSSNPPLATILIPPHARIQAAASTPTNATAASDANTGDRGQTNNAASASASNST

As for `Cn1cc(-c2cnc3cnc(NC(=O)C4CCN(S(C)(=O)=O)CC4)cc3c2)cn1` [Compound 2792, N-(3-(1-Methyl-1H-pyrazol-4-yl)-1,7-naphthyridin-6-yl)-1-(methylsulfonyl) piperidine-4-carboxamide], the EC50 in the test on IL-6 was over 10000 nM; in test [1] (Homo sapiens, SW480), over 10000 nM; in test [2] (Mus musculus, BV-2, 5 h), 357 nM; in test [3] (Homo sapiens, SW480, 96 h), over 10000 nM; at DYRK1A kinase it was 12 nM; in test [4] (Homo sapiens, Fibroblast, 96 h), over 10000 nM. Also, the EC50 on GSK3β kinase is 1150 nM. Besides, the inhibition at 10 µM with IL-6 amounted to 4%; in test [1] (Homo sapiens), 38.1%; in test [3] (Homo sapiens) it was 29%; in test [4] (Homo sapiens, Fibroblast) it was 44.8%.
Consider `CN1CCC(n2cc(C(=O)Nc3cc4cc(-c5cnn(C)c5)cnc4cn3)cn2)CC1` [Compound 2949, N-(3-(1-Methyl-1H-pyrazol-4-yl)-1,7-naphthyridin-6-yl)-1-(1-methylpiperidin-4-yl)-1H-pyrazole-4-carboxamide], for which the concentration giving a half-maximal response (EC50) came to 9150 nM with IL-6; 59 nM in test [1] (Homo sapiens, SW480); 454 nM in test [2] (Mus musculus, BV-2, 5 h); 440 nM in test [3] (Homo sapiens, SW480, 96 h); 24 nM at DYRK1A kinase; 5150 nM in test [4] (Homo sapiens, Fibroblast, 96 h). Besides, the EC50 at GSK3β kinase was over 10000 nM.
On to `CN1CCc2ccc(C(=O)Nc3cc4nc(-c5cnn(C)c5)ccc4cn3)cc2C1` [Compound 202, 2-Methyl-N-(2-(1-methyl-1H-pyrazol-4-yl)-1,6-naphthyridin-7-yl)-1,2,3,4-tetrahydroisoquinoline-7-carboxamide], for which the concentration giving a half-maximal response (EC50) in the test on IL-6 was over 10000 nM; in test [1] (Homo sapiens, SW480), 686 nM; in test [2] (Mus musculus, BV-2, 5 h), 300 nM; in test [3] (Homo sapiens, SW480, 96 h), 9310 nM; at DYRK1A kinase, 9 nM; in test [4] (Homo sapiens, Fibroblast, 96 h), 530 nM. At GSK3β kinase, the EC50 was over 10000 nM. Also, the inhibition at 10 µM in the test with IL-6 amounted to 5.1%.
`CC(C)OC(=O)N1CCC(n2cc(C(=O)Nc3cc4nc(-c5cnn(C)c5)ccc4cn3)cn2)CC1` [Compound 234, Isopropyl 4-(4-((2-(1-methyl-1H-pyrazol-4-yl)-1,6-naphthyridin-7-yl)carbamoyl)-1H-pyrazol-1-yl)piperidine-1-carboxylate]: the EC50 amounted to 1890 nM in the test on IL-6; 124 nM in test [1] (Homo sapiens, SW480); 26 nM in test [2] (Mus musculus, BV-2, 5 h); 229 nM in test [3] (Homo sapiens, SW480, 96 h); 4 nM on DYRK1A kinase; 329 nM in test [4] (Homo sapiens, Fibroblast, 96 h). Also, the concentration for a half-maximal effect (EC50) on GSK3β kinase is 2250 nM.
Take `CN1CCN(c2ccc(C(=O)Nc3cc4cc(-c5cnn(C)c5)ncc4cn3)cn2)CC1` [Compound 3778, N-(6-(1-Methyl-1H-pyrazol-4-yl)-2,7-naphthyridin-3-yl)-6-(4-methylpiperazin-1-yl)nicotinamide]: the concentration giving a half-maximal response (EC50) with IL-6 was over 10000 nM; in test [1] (Homo sapiens, SW480), 3970 nM; in test [2] (Mus musculus, BV-2, 5 h), 720 nM; in test [3] (Homo sapiens, SW480, 96 h), 7720 nM; on DYRK1A kinase, 4 nM; in test [4] (Homo sapiens, Fibroblast, 96 h) it was 694 nM. For the same compound, the half-maximal effective concentration (EC50) on GSK3β kinase was found to be 187 nM. The inhibition at 10 µM in the test with IL-6 came out at 4.2%.
Regarding `O=C(Nc1cc2nc(-c3cncc(NCC4(F)CNC4)n3)ccc2cn1)C1CC1` [Compound 871, N-(2-(6-(((3-Fluoroazetidin-3-yl)methyl)amino)pyrazin-2-yl)-1,6-naphthyridin-7-yl)cyclopropanecarboxamide], the half-maximal effective concentration (EC50) in the test on IL-6 was 3420 nM; in test [1] (Homo sapiens, SW480), over 10000 nM; in test [2] (Mus musculus, BV-2, 5 h), 306 nM; in test [3] (Homo sapiens, SW480, 96 h) it was over 10000 nM; at DYRK1A kinase, 25 nM; in test [4] (Homo sapiens, Fibroblast, 96 h), 8050 nM. The EC50 at GSK3β kinase is 360 nM. Further, the inhibition at 10 µM in test [1] (Homo sapiens) came to 24.7%; in test [3] (Homo sapiens), 33.5%.
For `Cc1ncc(-c2ccc3cnc(NC(=O)[C@H]4CC[C@H](CO)CC4)nc3c2)o1` [Compound 1447, trans-4-(Hydroxymethyl)-N-(7-(2-methyloxazol-5-yl)quinazolin-2-yl)cyclohexane-1-carboxamide], the concentration for a half-maximal effect (EC50) with IL-6 is over 10000 nM; in test [1] (Homo sapiens, SW480), 617 nM; in test [2] (Mus musculus, BV-2, 5 h), 605 nM; in test [3] (Homo sapiens, SW480, 96 h) it was over 10000 nM; at DYRK1A kinase, 56 nM; in test [4] (Homo sapiens, Fibroblast, 96 h) it was over 10000 nM. Also, the EC50 at GSK3β kinase was determined as 952 nM. Moreover, the inhibition at 10 µM with IL-6 came to 0%; in test [3] (Homo sapiens), 8.5%; in test [4] (Homo sapiens, Fibroblast) it was 35.5%.
Regarding `Cn1cncc1-c1ccc2cnc(NC(=O)c3ccc4c(c3)CNC4)nc2c1` [Compound 1383, N-(7-(1-Methyl-1H-imidazol-5-yl)quinazolin-2-yl)isoindoline-5-carboxamide], the EC50 with IL-6 was over 10000 nM; in test [1] (Homo sapiens, SW480) it was over 10000 nM; in test [2] (Mus musculus, BV-2, 5 h), 6800 nM; in test [3] (Homo sapiens, SW480, 96 h) it was over 10000 nM; on DYRK1A kinase, 2 nM; in test [4] (Homo sapiens, Fibroblast, 96 h), 3290 nM. Further, the EC50 on GSK3β kinase was found to be 453 nM. Moreover, the inhibition at 10 µM in the test with IL-6 is 3.1%; in test [1] (Homo sapiens), 15.9%; in test [3] (Homo sapiens) it was 26.1%.
For `Cn1cncc1-c1cnc2cnc(NC(=O)c3ccc4c(c3)CNC4)cc2c1` [Compound 3194, N-(3-(1-Methyl-1H-imidazol-5-yl)-1,7-naphthyridin-6-yl)isoindoline-5-carboxamide], the concentration giving a half-maximal response (EC50) was over 10000 nM in the test with IL-6; 4780 nM in test [1] (Homo sapiens, SW480); at least 10000 nM in test [2] (Mus musculus, BV-2, 5 h); 4070 nM in test [3] (Homo sapiens, SW480, 96 h); 6 nM at DYRK1A kinase; over 10000 nM in test [4] (Homo sapiens, Fibroblast, 96 h). On GSK3β kinase, the EC50 is over 10000 nM. The inhibition at 10 µM with IL-6 is 8.9%; in test [4] (Homo sapiens, Fibroblast), 47.3%.
As to `O=C(Nc1cc2cc(-c3cncc(NCC4(F)CNC4)n3)cnc2cn1)C1CC1` [Compound 3591, N-(3-(6-(((3-Fluoroazetidin-3-yl)methyl)amino)pyrazin-2-yl)-1,7-naphthyridin-6-yl)cyclopropanecarboxamide], the EC50 with IL-6 was over 10000 nM; in test [1] (Homo sapiens, SW480) it was over 10000 nM; in test [2] (Mus musculus, BV-2, 5 h) it was 2400 nM; in test [3] (Homo sapiens, SW480, 96 h), over 10000 nM; on DYRK1A kinase, 10 nM; at GSK3β kinase, 2270 nM. The inhibition at 10 µM amounted to 4.4% in the test on IL-6, 1.3% in test [1] (Homo sapiens) and 6.1% in test [3] (Homo sapiens).
As for `CN1CCN(c2ncc(C(=O)Nc3cc4cc(-c5cnn(C)c5)ncc4cn3)s2)CC1` [Compound 4602, N-(6-(1-Methyl-1H-pyrazol-4-yl)-2,7-naphthyridin-3-yl)-2-(4-methylpiperazin-1-yl)thiazole-5-carboxamide], the EC50 in test [1] (SW480 Sp5-Luc reporter cells, 36 to 48 hours) was over 10000 nM; in test [2] (BV-2 cells, LPS 250 ng/mL 5 hours, compounds overnight, 10 μM to […], cytokine not named in Table 9) it was 2900 nM; in test [3] (SW480 cells, four days, CellTiter-Glo), over 10000 nM; in test [4] (LL29 fibroblasts from IPF patients, TGF-β1 20 ng/mL, 4 days, curves from 10 μM to 0.94 nM) it was over 10000 nM. Further, the “percent inhibition at 10 μM” value in test [1] (at 10 μM, given for EC50 of >10 μM, SW480 Sp5-Luc reporter) is given as 10.9%; in test [3] (at 10 μM, given for EC50 of >10 μM, SW480 cell viability) it was 26.1%. Besides, in test [4] (LL29 fibroblasts, TGF-β1, given beside >10 μM, meaning not given), the “percentage in parentheses after EC50 >10” value is 14.3%.
As for `O=C(Nc1cc2cc(-c3cncc(OCC4CNC4)n3)cnc2cn1)c1ccc(F)cc1` [Compound 3612, N-(3-(6-(Azetidin-3-ylmethoxy)pyrazin-2-yl)-1,7-naphthyridin-6-yl)-4-fluorobenzamide], the EC50 is 5050 nM in the test on IL-6; 3920 nM in test [1] (Homo sapiens, SW480); 2830 nM in test [3] (Homo sapiens, SW480, 96 h); 487 nM at DYRK1A kinase; 3900 nM in test [4] (Homo sapiens, Fibroblast, 96 h); over 10000 nM at GSK3β kinase.
Regarding `CN1CCCN(CC(=O)Nc2ncc3ccc(-c4cnn(C)c4)cc3n2)CC1` [Compound 1013, 2-(4-Methyl-1,4-diazepan-1-yl)-N-(7-(1-methyl-1H-pyrazol-4-yl)quinazolin-2-yl)acetamide], the 50% effective concentration (EC50) in the test with IL-6 is over 10000 nM; in test [1] (Homo sapiens, SW480), over 10000 nM; in test [3] (Homo sapiens, SW480, 96 h), over 10000 nM; on DYRK1A kinase it was 75 nM; in test [4] (Homo sapiens, Fibroblast, 96 h), over 10000 nM; on GSK3β kinase, 532 nM. The inhibition at 10 µM with IL-6 was 3.1%; in test [1] (Homo sapiens) it was 0%; in test [3] (Homo sapiens) it was 10.5%; in test [4] (Homo sapiens, Fibroblast), 12.4%.
Consider `Cc1nnc(-c2cnc3cnc(NC(=O)CN4C5CCC4CC5)cc3c2)s1` [Compound 3446, 2-(7-Azabicyclo[2.2.1]heptan-7-yl)-N-(3-(5-methyl-1,3,4-thiadiazol-2-yl)-1,7-naphthyridin-6-yl)acetamide], for which the EC50 in the test with IL-6 was over 10000 nM; in test [1] (Homo sapiens, SW480), over 10000 nM; in test [3] (Homo sapiens, SW480, 96 h), over 10000 nM; at DYRK1A kinase it was 2090 nM; in test [4] (Homo sapiens, Fibroblast, 96 h), over 10000 nM; at GSK3β kinase, over 10000 nM. Besides, the inhibition at 10 µM in the test on IL-6 was found to be 5.8%; in test [1] (Homo sapiens), 29.9%; in test [3] (Homo sapiens), 16.1%; in test [4] (Homo sapiens, Fibroblast), 16.9%.
